{
  "source": "patent US10420781B2",
  "about": "“Thyroid hormone receptor agonist and use thereof” (Metabasis Therapeutics, Inc., priority 2016, dated 2019)",
  "key": {"[1]": {"system": "cholesterol-fed Sprague Dawley rat", "assay": "Single oral dose, plasma cholesterol lowering in cholesterol-fed rat", "assay_type": "in vivo", "conditions": "24 hours", "protocol": "Compound I was tested to determine the cholesterol lowering efficacy and potency of Compound I following oral administration of single dose to a standard rodent model of hypercholesterolemia, the cholesterol-fed Sprague Dawley rat.\nMale Sprague Dawley rats were obtained from Harlan (Livermore, Calif.) at a body weight of 250 g, caged 3 rats/cage, and housed under a 12 h:12 h, light:dark cycle (lights on at 7 AM). Pelleted 5001 chow containing 1.5% cholesterol and 0.5% cholic acid (Harlan Teklad, Indianapolis, Ind.) was provided for 2 weeks prior to the initiation of treatment. Food and water were provided ad libitum.\nCompound I was dissolved in 100% PEG-400. […]\nMale Sprague Dawley rats (˜250 g) were fed a diet containing 1.5% cholesterol and 0.5% cholic acid for 2 weeks prior to the initiation of treatment. Compound I was administered as an oral solution in PEG-400 and phosphate buffered saline, respectively, at doses ranging from 0.3 to 100 mg/kg Compound I. Thyroid hormone T3 (0.1 mg/kg) was evaluated as a positive control. […]\nPlasma was prepared from the blood samples by centrifugation in an Eppendorf Microfuge (14,000 rpm, 2 min, room temperature). Total plasma cholesterol was measured using the Infinity cholesterol reagent (Thermo Electron Corporation, Waltham, Mass.) and a standard curve prepared with a 300 mg/dL cholesterol standard. […]"}, "beagle dogs [2]": {"system": "beagle dogs", "assay": "Once-daily oral administration for 14 days, total plasma cholesterol in beagle dogs", "assay_type": "in vivo, dog", "conditions": "14 days once-daily oral, 0.1-10 mg/kg/day", "protocol": "(§1) The effects of once-daily oral administration of Compound I on plasma cholesterol levels and thyroid function indicators in beagle dogs were evaluated for 14 days.\n(§2) Male and female beagle dogs were purchased from Marshall Farms (North Rose, N.Y.) at approximately 9-15 kg in body weight. Animals were housed individually under a 12 hour lighting cycle (7 am-7 pm light) and controlled temperature (˜22° C.). The dogs were fed twice-daily with Teklad 8563 chow (Harlan Teklad, Madison, Wis.) and allowed water ad libitum.\nCompound I was dissolved in 100% PEG-400. The formulation was prepared just prior to initiation of treatment and stored at 4° C. […]\nTwelve beagle dogs (9-15 kg) were randomized into 6 dosing groups (1 male and 1 female/group) and gavaged once-daily with a PEG-400 solution of Compound I at doses of 0.1, 0.3, 1, 3, or 10 mg/kg or with vehicle for 14 days. […] Blood samples were collected at baseline and appropriate time intervals thereafter and analyzed for total plasma cholesterol levels, serum levels of total T4 (tT4), free T4 (fT4), total T3 (tT3), free T3 (fT3), thyroid stimulating hormone (TSH), and plasma drug levels.\nTotal plasma cholesterol was measured using an Infinity cholesterol reagent (Thermo Electron Corporation, Waltham, Mass.) and with use of a standard curve prepared from a 300 mg/dL cholesterol standard. […]"}, "beagle dogs [3]": {"system": "beagle dogs", "assay": "Once-daily oral administration for 14 days, thyroid function tests (tT4, fT4, tT3, fT3, TSH) in beagle dogs", "assay_type": "in vivo, dog", "protocol": "as §1, §2\nCompound I was dissolved in 100% PEG-400. The formulation was prepared just prior to initiation of treatment and stored at 4° C. A fresh formulation was prepared for each 7 day treatment period.\nTwelve beagle dogs (9-15 kg) were randomized into 6 dosing groups (1 male and 1 female/group) and gavaged once-daily with a PEG-400 solution of Compound I at doses of 0.1, 0.3, 1, 3, or 10 mg/kg or with vehicle for 14 days. At the end of the treatment cycle (Cycle 1), the dogs were washed out for 6 weeks and then entered into a second 14-day treatment cycle. Cycle 2 employed the same dosing paradigm as Cycle 1, but animals were randomized to Cycle 2 in such a way that the combined dosing groups from the two cycles each consisted of 4 different animals (2 males, 2 females). Blood samples were collected at baseline and appropriate time intervals thereafter and analyzed for total plasma cholesterol levels, serum levels of total T4 (tT4), free T4 (fT4), total T3 (tT3), free T3 (fT3), thyroid stimulating hormone (TSH), and plasma drug levels.\nSerum samples were shipped on dry ice to the Diagnostic Center for Population and Animal Health (Lansing, Mich.) and assayed for total T4 (tT4), free T4 (fT4), total T3 (tT3), free T3 (fT3), and thyroid stimulating hormone (TSH). Average values±the standard error of the mean (SEM) were calculated for all treatment groups."}, "[4]": {"system": "fT3 and fT4 levels in human serum", "assay": "Ex vivo effect on fT3 and fT4 levels in human serum (RIA)", "protocol": "(§3) Compound I was tested to measure its ex vivo effects at concentrations ranging from 0 to 100 μM on the free 3,5,3′-triiodothyronine (fT3) and the free 3,5,3′,5′ tetraiodothyronine (fT4) levels in human, monkey, dog, and rat sera.\n(§4) Stock solution of Compound I was prepared in 100% DMSO. The test articles were combined with either human, monkey, dog or rat serum in a microcentrifuge tube at concentrations of 1, 3, 10, 30, and 100 μM, and incubated at 37° C. with agitation (800 rpm) using a Thermomixer R (Eppendorf, Inc.; Westbury, N.Y.) for 1 h. The DMSO concentration in the serum incubations was kept constant at 1%. Following the serum incubations, fT3 and T4 quantification was accomplished using the GammaCoat™ FT3 and the GammaCoat™ FT4 RIA kits, respectively. The kits were used according to the manufacturer's recommendations. The T3 assay specifications indicate 0.2% cross-reactivity with T4, while the T4 assay specifications indicate 0.5% cross-reactivity with T3. In these […] assays, a shaking water bath and a Wallac Wizard 1470 automatic gamma counter (Perkin Elmer, Inc.; Waltham, Mass.) were used. At each concentration tested, a background signal was subtracted from the data. This background signal was determined in samples of the test articles in PBS in the absence of serum. All assays were performed in duplicate."}, "[5]": {"system": "fT3 and fT4 levels in monkey serum", "assay": "Ex vivo effect on fT3 and fT4 levels in monkey serum (RIA)", "conditions": "1 h at 37° C., 1-100 μM tested", "protocol": "as §3, §4"}, "[6]": {"system": "fT3 and fT4 levels in dog serum", "assay": "Ex vivo effect on fT3 and fT4 levels in dog serum (RIA)", "conditions": "1 h at 37° C., 1-100 μM tested", "protocol": "as §3, §4"}, "[7]": {"system": "fT3 and fT4 levels in rat serum", "assay": "Ex vivo effect on fT3 and fT4 levels in rat serum (RIA)", "conditions": "1 h at 37° C., 1-100 μM tested", "protocol": "as §3, §4"}, "beagle dogs [8]": {"system": "beagle dogs", "assay": "Comparison of Compound I and MB07811: cholesterol, tT4 and TSH in beagle dogs", "assay_type": "in vivo, dog", "protocol": "Compound I was compared with Compound MB07811 with respect to their efficacy in lowering cholesterol and their effects on the total T4 (tT4) and thyroid stimulating hormone (TSH).\nCompound I and Compound MB07811 were tested to determine the effects of oral administration of each compound once-daily for 14 days followed by alternate day dosing for 14 days on plasma cholesterol levels and indicators of thyroid function in beagle dogs.\nMale and female Beagle dogs were purchased from Marshall Farms (North Rose, N.Y.) at approximately 9-15 kg. Animals were housed individually under a 12-hour lighting cycle (7 am-7 pm light) and controlled temperature (˜22° C.). The dogs were fed twice daily with Teklad 8563 chow (Harlan Teklad, Madison, Wis.) and allowed water ad libitum.\nMB07811 was administered as a suspension in 0.5% CMC/1% Lutrol in deionized water. To prepare the vehicle, the required amount of CMC was weighed and dissolved in deionized water using a Waring blender. The required amount of Lutrol F68 was weighed and slowly added to the Waring blender while mixing. […]\nTwelve beagle dogs (9-15 kg) were randomized into 6 dosing groups (1 male and 1 female/group) and gavaged once-daily with a 0.5% CMC/1% Lutrol F68 suspension of MB07811 at doses of […] or with vehicle for 14 days. […] Blood samples were collected at baseline and appropriate time intervals thereafter and analyzed for total plasma cholesterol levels, serum levels of total T4 (tT4), free T4 (fT4), total T3 (tT3), free T3 (fT3), and thyroid stimulating hormone (TSH). […]\nTwelve beagle dogs (9-15 kg) were randomized into 6 dosing groups (1 male and 1 female/group) and gavaged once-daily with a PEG-400 solution of Compound I at doses of 0.1, 0.3, 1, 3, or 10 mg/kg or with vehicle for 14 days. […] Blood samples were collected at baseline and appropriate time intervals thereafter and analyzed for total plasma cholesterol levels, serum levels of total T4 (tT4), free T4 (fT4), total T3 (tT3), free T3 (fT3), and thyroid stimulating hormone (TSH), and for plasma drug levels"}, "rat": {"system": "rat", "assay": "Pilot rat 28-day safety study", "conditions": "28 days; 1 and 5 mg/kg per day", "procedure": "Two doses were tested, 1 mg/kg per day and 5 mg/kg per day. […] The mice were sacrificed on day 29 and then analyzed for clinical signs, BW, FC Clinical pathology (including TSH, T3, T4), gross pathology, organ weights, histopathology, toxicokinetics."}, "[9]": {"conditions": "all five doses 0.1, 0.3, 1, 3, 10 mg/kg, baseline, 8-day, 15-day"}},
  "note": "“Also recorded” adds a separate entry of the source.",
  "data": [
    {"smiles": "Cc1cc(OCP(=O)(OCOC(=O)C(C)(C)C)OCOC(=O)C(C)(C)C)cc(C)c1Cc1ccc(O)c(Cc2ccccc2)c1", "note": "[Compound I]", "values": [
      {"measurement": "ED50", "setting": "[1]; Rattus norvegicus, single oral dose, read-out: ED50 (dose that elicits a half-maximal reduction in total plasma cholesterol levels from baseline)", "result": "~2", "unit": "mg/kg"},
      {"measurement": "reduction of total plasma cholesterol levels, dose dependent", "setting": "beagle dogs [2]", "result": "15-38%"},
      {"measurement": "reduction of serum fT3", "setting": "beagle dogs [3]; 14 days, highest dose group 10 mg/kg/day", "result": "about 45%"},
      {"measurement": "reduction of serum tT4 from baseline", "setting": "beagle dogs [3]; Day 15, 1 mg/kg/day", "result": "about 29%"},
      {"measurement": "tT4 levels reduced relative to baseline (in the fT3 paragraph, FIG. 9)", "setting": "beagle dogs [3]; Day 15, 10 mg/kg/day", "result": "~45", "unit": "%"},
      {"measurement": "reduction of serum tT4 from baseline", "setting": "beagle dogs [3]; Day 15, 0.1, 0.3 and 3 mg/kg/day", "result": "6.7-9.5%"},
      {"measurement": "change of serum TSH levels from baseline", "setting": "beagle dogs [3]; Day 15, 0.1 to 10 mg/kg/day", "result": "no meaningful changes; also recorded: did not show any effect; also recorded: essentially unaffected"},
      {"measurement": "reduction of serum fT4 from baseline", "setting": "beagle dogs [3]; Day 15, all Compound I treated groups, not dose dependent, vehicle about 19%", "result": "13-32%"},
      {"measurement": "reduction of serum fT3 from baseline", "setting": "beagle dogs [3]; Day 15, doses up to and including 3 mg/kg/day", "result": "8-20%"},
      {"measurement": "reduction of serum tT3 from baseline", "setting": "beagle dogs [3]; Day 15, treatment groups, not dose dependent, vehicle about 13%", "result": "8-15%"},
      {"measurement": "concentration at which no effect on fT3 was shown", "setting": "[4]", "result": "less than 30"},
      {"measurement": "concentration at which no effect on fT4 was shown", "setting": "[4]", "result": "less than 100 μM"},
      {"measurement": "highest concentration at which no increase in fT3 level was observed", "setting": "[4]; 1 h at 37° C., 1-100 μM tested", "result": 30, "unit": "µM"},
      {"measurement": "highest concentration at which no increase in fT4 level was observed", "setting": "[4]; 1 h at 37° C., 1-100 μM tested", "result": 100, "unit": "µM"},
      {"measurement": "highest concentration at which no increase in fT3 level was observed", "setting": "[5]", "result": 30, "unit": "µM"},
      {"measurement": "highest concentration at which no increase in fT4 level was observed", "setting": "[5]", "result": 100, "unit": "µM"},
      {"measurement": "highest concentration at which no increase in fT3 level was observed", "setting": "[6]", "result": 100, "unit": "µM"},
      {"measurement": "highest concentration at which no increase in fT4 level was observed", "setting": "[6]", "result": 100, "unit": "µM"},
      {"measurement": "highest concentration at which no increase in fT3 level was observed", "setting": "[7]", "result": 100, "unit": "µM"},
      {"measurement": "highest concentration at which no increase in fT4 level was observed", "setting": "[7]", "result": 100, "unit": "µM"},
      {"measurement": "effect on T4 (tT4) levels in comparison", "setting": "beagle dogs [8]; [9]", "result": "reduced effect"},
      {"measurement": "effect on serum TSH level in comparison with MB07811", "setting": "beagle dogs [8]; [9]", "result": "no effect"},
      {"measurement": "effect on the thyroid hormone axis (T4 and TSH) versus MB07811", "setting": "beagle dogs [8]; dog, in vivo", "result": "much reduced effect"},
      {"measurement": "TFT effects greater than Compound MB07811", "setting": "rat", "result": "no evidence"},
      {"measurement": "cardiac or liver necrosis", "setting": "rat", "result": "no evidence"},
      {"measurement": "deaths or adverse effects on body weight, food consumption, hematology, serum chemistry or urinalysis, or macroscopic or microscopic pathology", "setting": "rat", "result": "no deaths or adverse effects"}
    ]},
    {"smiles": "N[C@@H](Cc1cc(I)c(Oc2ccc(O)c(I)c2)c(I)c1)C(=O)O", "note": "[Compound T3, 3,5,3′-triiodo-L-thyronine, reference compound]", "values": [
      {"measurement": "magnitude of cholesterol lowering versus Compound I at its two highest doses", "setting": "[1]; T3 0.1 mg/kg, Compound I 30 and 100 mg/kg", "result": "comparable"}
    ]}
  ]
}
